From patent US20120190752A1, “EXO-S-MECAMYLAMINE METHOD, USE, AND COMPOUND FOR TREATMENT” (Targacept Inc., priority 2009, published 2012)

System: subjects with major depressive disorder (MDD) who were inadequate responders to citalopram
Assay: Individual HAMD-17 factor (subscale) scores, exploratory analysis
Type: in vivo, human
Protocol: In more detail, a multi-center double-blind, randomized, placebo-controlled, parallel group, flexible dose titration study of TC-5214 as adjunctive therapy in subjects with major depressive disorder (MDD) who were inadequate responders to citalopram was conducted in centers in the US and India. The study consisted of a screening period, baseline/washout period, open-label phase, double-blind phase, and a follow-up visit. Subject participation in the study could continue for up to 16 weeks of treatment. Following a washout period of up to 28 days for other antidepressants, subjects with MDD and a MADRS total score >/=28 and a Clinical Global Impression-Severity (CGI-S) score >/=4 were enrolled on Day 1 into an open-label citalopram-only phase of the study. This phase lasted 8 weeks, with citalopram (CIT) dose increased from a once-daily dose of 20 mg (Day 1 through Week 4) to 40 mg (Week 4 through Week 8). A total of 579 subjects entered the open-label citalopram phase. At Week 8, subjects who tolerated 40 mg CIT, but whose MADRS score was reduced <50% from baseline and no lower than 17, and CGI-S≧4, were considered inadequate responders. These subjects (n=270) were randomized in a double-blind fashion to receive either placebo or TC-5214-23 as add-on therapy to continued CIT. The double-blind phase of the study also lasted 8 weeks (Week 8 to Week 16). Study drug, TC-5214-23 or placebo, was started at 2 mg daily (1 mg twice per day [BID] dosing), added on to continuing CIT (40 mg PO qd). After 2 weeks of treatment, the dose of TC-5214 could be increased to 4 mg (2 mg BID) or continued unchanged, with up-titration based upon good tolerability and inadequate therapeutic response. After a further 2 weeks, the dose of TC-5214 could be increased again to 8 mg (4 mg BID) if judged appropriate by the investigator, based upon good tolerability and inadequate therapeutic response. At any time during the double-blind phase of the study, placebo or TC-5214-23 could be reduced to the previous dose level following the emergence of unacceptable adverse events (AEs). […] At this follow-up, any signs or symptoms of relapse were evaluated. If a subject was prematurely discontinued from the study between Week 8 and Week 16 for any reason, the investigator was to make every effort to perform all evaluations as per protocol, assuming the subject had reached the end of the double-blind add-on treatment phase. These evaluations were to be made as soon as possible and within 2 weeks of discontinuation. […] There was no meaningful difference in results as a function of age, gender, site, or smoking status. An exploratory analysis assessed the differences in the treatment groups from Week 8 (double-blind baseline) to Week 16 for each individual HAMD-17 factor score.

[1] = ITT population, Week 8 (double-blind baseline) to Week 16

CNC1(C)C2CCC(C2)C1(C)C (stereo in doubt) [TC-5214, (S)—N,2,3,3-tetramethylnorbornan-2-amine]
HAMD-17 item 1 Depression-Mood: Adjusted Mean Change TC-5214—Placebo (SD) [1]: −0.69 (0.86) | HAMD-17 item 1 Depression-Mood: Effect Size [1]: 0.80 | HAMD-17 item 2 Feelings of Guilt: Adjusted Mean Change TC-5214—Placebo (SD) [1]: −0.43 (0.72) | HAMD-17 item 2 Feelings of Guilt: Effect Size [1]: 0.60 | HAMD-17 item 3 Suicide: Adjusted Mean Change TC-5214—Placebo (SD) [1]: −0.07 (0.40) | HAMD-17 item 3 Suicide: Effect Size [1]: 0.18 | HAMD-17 item 4 Early Insomnia: Adjusted Mean Change TC-5214—Placebo (SD) [1]: −0.41 (0.64) | HAMD-17 item 4 Early Insomnia: Effect Size [1]: 0.64 | HAMD-17 item 5 Middle Insomnia: Adjusted Mean Change TC-5214—Placebo (SD) [1]: −0.42 (0.64) | HAMD-17 item 5 Middle Insomnia: Effect Size [1]: 0.66 | HAMD-17 item 6 Late Insomnia: Adjusted Mean Change TC-5214—Placebo (SD) [1]: −0.35 (0.63) | HAMD-17 item 6 Late Insomnia: Effect Size [1]: 0.56 | HAMD-17 item 7 Work and Activities: Adjusted Mean Change TC-5214—Placebo (SD) [1]: −0.49 (0.86) | HAMD-17 item 7 Work and Activities: Effect Size [1]: 0.57 | HAMD-17 item 8 Retardation: Adjusted Mean Change TC-5214—Placebo (SD) [1]: −0.31 (0.59) | HAMD-17 item 8 Retardation: Effect Size [1]: 0.53 | HAMD-17 item 9 Agitation: Adjusted Mean Change TC-5214—Placebo (SD) [1]: −0.40 (0.68) | HAMD-17 item 9 Agitation: Effect Size [1]: 0.59 | HAMD-17 item 10 Psychic Anxiety: Adjusted Mean Change TC-5214—Placebo (SD) [1]: −0.59 (0.77) | HAMD-17 item 10 Psychic Anxiety: Effect Size [1]: 0.77 | HAMD-17 item 11 Somatic Symptoms: Anxiety: Adjusted Mean Change TC-5214—Placebo (SD) [1]: −0.41 (0.70) | HAMD-17 item 11 Somatic Symptoms: Anxiety: Effect Size [1]: 0.59 | HAMD-17 item 12 Somatic Symptoms: GI: Adjusted Mean Change TC-5214—Placebo (SD) [1]: −0.23 (0.52) | HAMD-17 item 12 Somatic Symptoms: GI: Effect Size [1]: 0.44 | HAMD-17 item 13 Somatic Symptoms: General: Adjusted Mean Change TC-5214—Placebo (SD) [1]: −0.24 (0.66) | HAMD-17 item 13 Somatic Symptoms: General: Effect Size [1]: 0.36 | HAMD-17 item 14 Somatic Symptoms: Genital: Adjusted Mean Change TC-5214—Placebo (SD) [1]: −0.34 (0.62) | HAMD-17 item 14 Somatic Symptoms: Genital: Effect Size [1]: 0.55 | HAMD-17 item 15 Hypochondriasis: Adjusted Mean Change TC-5214—Placebo (SD) [1]: −0.48 (0.74) | HAMD-17 item 15 Hypochondriasis: Effect Size [1]: 0.65 | HAMD-17 item 16 Weight Loss: Adjusted Mean Change TC-5214—Placebo (SD) [1]: −0.20 (0.53) | HAMD-17 item 16 Weight Loss: Effect Size [1]: 0.38 | HAMD-17 item 17 Insight: Adjusted Mean Change TC-5214—Placebo (SD) [1]: 0.03 (0.31) | HAMD-17 item 17 Insight: Effect Size [1]: 0.10 | each HAMD-17 subscale score change from baseline compared with placebo (ITT, with the exception of the Suicide and Insight subscales, result in words): statistically significant decreases (improvements)
